Laboratory results from patent US10183059B2, “Method for treating microbial infection” (GENERAL BIOLOGICALS CORPORATION, priority 2015, dated 2019).

What was measured:
C. dubliniensis = type: cell-based
Procedure: (§1) The antimicrobial activities against clinical isolates and drug-resistant strains of P-113 and its derived peptides were examined. The present invention evaluated the effect of P-113 on 15 clinical isolates of fungi belonging to the genus Candida (see Table 1). Clinical isolates were cultivated overnight at 30° C. under shaking in a YPD cultural broth (1% yeast extract, 2% peptone and 2% glucose), cells were centrifuged and washed with YPD, then cultivated again in a YPD culture broth allowing to grow for 5 hours (initial optical density at 600 nm [OD600]˜0.5). Cells were washed with PBS and then collected by centrifugation, redissolved in a culture broth (modified RPMI 1640 medium, LYM), the cell concentration was adjusted to ˜0.1 [OD600]/ml and then treated with P-113. After the mixed solution was cultivated under shaking at 37° C. and 5% CO2 for 24 hours, absorbance measurement (OD value) was performed to determine the minimum inhibitory concentration (MIC).

C. parapsilosis = type: cell-based
Procedure: as §1

[1] = Circular dichroism secondary structure in 85% TFE, BeStSel analysis; type: physicochemical; conditions: CD analyzed by BeStSel
Procedure: The present invention utilized a Circular Dichroism Spectrometer (AVIV Company) to observe the secondary structure of the antimicrobial peptides. Circular dichoism spectra of P-113 and its derivatives were recorded over the wavelength range of 195-260 nm with readings every 1 nm by using a quartz cuvette having 1 mm optical path length. Ellipticities were represented as mean residue molar ellipticity (MRE). P-113, P-113Du and P-113Tri were dissolved in 85% trifluoroethanol (TFE) solution.

[2] = system: Wild type (WT) Candida albicans; test: Salt and pH tolerance of candidacidal activity; type: cell-based
Procedure: Wild type (WT) Candida albicans was cultivated in a YPD medium at 30° C. overnight and then transferred to 5 ml of fresh YPD culture broth, cultivated subsequently for another 5 hours. After the fungi were collected by centrifugation, washed with 12.5 mM sodium acetate twice, redissolved with 12.5 mM NaOAc to yield a fungal concentration of 1.5×10^6 cells/ml. Fifty microliters of liquid fungal suspension was taken out to mix with 50 μl of sequentially diluted antimicrobial peptides and placed in different wells of a 96-well plate allowing to react for 1 hour at 37° C. (as shown in FIG. 4(A). Then, 50 μl of liquid fungal mixture was taken out and 450 μl PBS was added to terminate the reaction. Finally, 25 μl was taken out and inoculated on a solid YPD medium.

[3] = system: Wild type (WT) Candida albicans; test: Candidacidal activity against cell suspension, colony count; type: cell-based; conditions: 37° C., 1 hour
Procedure: Wild type (WT) Candida albicans was cultivated in a YPD medium at 30° C. overnight and then transferred to 5 ml of fresh YPD culture broth, subsequently cultivated for another 5 hours. After being collected by centrifugation, the fungi were washed with sodium acetate (12.5 mM) twice, redissolved with 12.5 mM sodium acetate to yield a fungal concentration of 1.5×10^5 cells/ml. 50 μl of liquid fungal suspension was taken out to be mixed with 50 μl of sequence-diluted antimicrobial peptide and placed in different wells of a 96-well plate, allowing to react (37° C.) for 1 hour (as shown in FIG. 4(A)). Then, 20 μl of fungal liquid mixture was added into 780 μl of PBS to terminate the reaction. Finally, 50 μl was taken out and inoculated on a solid YPD medium, cultivated at 30° C. for 24 hours, then the number of colonies were counted.

[4] = system: Candida albicans strain SC5314 biofilms; test: Biofilm cell viability, XTT reduction assay; type: cell-based; conditions: biofilm cells, 37° C., 1 hr
Procedure: Candida albicans strain SC5314 was cultivated in a YPD medium overnight and then transferred to a fresh YPD culture broth, diluted until the concentration was 3×10^5 cells/ml. 100 μl of liquid fungal suspension was placed in a 96-well plate for cultivation at 37° C. for 24 hours, formed biofilms were washed with sodium acetate (12.5 mM). Then, sequence-diluted antimicrobial peptides P-113, P-113Du and P-113Tri (0-200 μM) were added, reacted at 37° C. for 1 hour, washed with PBS twice. The cellular activity of the biofilms was determined by using XTT (2,3-bis(2-methoxy-4-nitro-5-sulfophenyl)-2H-tetrazolium-5-carboxanilide) reduction assays to analyze the cell survival rate. To perform this reaction, XTT (0.5 mg/ml) and Menadione (0.5 μM) were dissolved in PBS and then added into a 96-well plate formed by biofilms, reacted at 30° C. for 30 minutes, the optical density was measured at wavelength 490 nm (OD490). The cellular activity of the biofilms was represented as a percentage.

Enterobacter aerogenes = test: Antimicrobial effect against bacteria (MIC); type: cell-based; conditions: strain ATCC 13048
Procedure: (§2) Wild type (WT) Pseudomonas aeruginosa, Klebsiella pneumoniae, Enterobacter aerogenes, Staphylococcus aureus were cultivated overnight in LB medium at 37° C., then transferred to 5 ml of fresh LB culture broth, cultivated again for another 3 hours. Bacteria were collected by centrifugation, washed with sodium acetate (12.5 mM) twice, redissolved with 12.5 mM sodium acetate until the concentration was 1.5×10^5 cells/ml. Mixed with sequential-diluted anti-bacterial peptides, seeded in different wells of a 96-well plate allowing to react for 1 hour. Then, 20 μl of liquid bacterial mixture was taken out to mix with 780 μl of PBS (Phosphate-buffered saline) to terminate the reaction. 50 μl was then taken out and inoculated on a solid medium, after being cultivated at 30° C. for 24 hours, formed colonies were observed.

Klebsiella pneumoniae = test: Antimicrobial effect against bacteria (MIC); type: cell-based; conditions: strain CG43
Procedure: as §2

Pseudomonas aeruginosa = test: Antimicrobial effect against bacteria (MIC); type: cell-based; conditions: strain PAO1, ATCC 15692
Procedure: as §2

Staphylococcus aureus = test: Antimicrobial effect against bacteria (MIC); type: cell-based; conditions: strain ATCC 33591
Procedure: as §2

[5] = system: SC5314 strain of Candida albicans; test: Effect of cell wall disrupting agents on peptide activity, CFU; type: cell-based; conditions: Proteinase K 1 mg/ml, 30 min
Procedure: The SC5314 strain of Candida albicans (wild type or WT) were grown overnight in YPD broth at 30° C. The overnight culture was then subcultured into fresh YPD medium and grown for 5 h. Cells were treated with Proteinase K (1 mg/ml) for 30 min or Zymolyase (5 mg/ml) for 1 h at 30° C., followed by reacting with different concentrations of the peptides for 1 h, respectively. After that, samples were serially diluted in phosphate-buffered saline (PBS) and 15 μl of each diluent was spotted onto YPD agar plates. Colony-forming units were counted after incubation at 30° C. for 24 h. The data were represented as the mean values±SD of three independent experiments.

och1Δ mutant strain = test: Susceptibility of och1Δ mutant, CFU; type: cell-based, Candida albicans; conditions: och1Δ versus SN250, 1 h
Procedure: The SN250 and och1Δ mutant strains were grown overnight in YPD broth at 30° C. The overnight culture was then subcultured into fresh YPD medium and grown for 5 h. Cells were treated with different concentration of peptides for 1 h. After treatment, samples were serially diluted in PBS and 15 μl of each diluent was spotted onto YPD agar plates. Colony-forming units were counted after 24 h incubation at 30° C. The data were represented as the mean values±SD of three independent experiments.

[6] = system: SC5314 strain of Candida albicans; test: Intracellular ROS assay (DHE, MitoSOX Red, flow cytometry); type: cell-based; conditions: 0.25 μM, 1 h, 37° C.
Procedure: The SC5314 strain of Candida albicans (wild type or WT) were grown overnight in YPD broth at 30° C. The overnight culture was then subcultured into fresh YPD medium and grown for 5 h. Cells were harvested by centrifugation, washed twice with 12.5 mM sodium acetate (NaOAc) and resuspended in 12.5 mM NaOAc to a concentration of 1*10^7 cells/ml. The cells were treated with various AMPs (0.25 μM) for 1 h at 37° C. After treatment, cells were washed twice with 12.5 mM NaOAc. Dihydroethidium (DHE) is a superoxide indicator, and MitoSOX Red (MitoSOX) was introduced for selective detection of superoxide in the mitochondria of live cells. The intracellular ROS was measured using DHE (20 μM) staining for 30 min and MitoSOX Red (5 μM) for 60 min in PBS. Fluorescent detection was performed by flow cytometry.

Molecule | Minimum Inhibitory Concentration (C. dubliniensis) [µg/mL] | Minimum Inhibitory Concentration (C. parapsilosis) [µg/mL] | content of the α-helical secondary structure [1] [%] | candidacidal activity ([2]; 93.75 mM sodium acetate) | candidacidal activity ([2]; pH 4.5, 6, and 8) | activity for killing fungus compared with P-113 [3] | concentration causing 50% reduction in the metabolic activity (50% RMA) [4] [µg/mL] | Minimum Inhibitory Concentration (MIC) (Enterobacter aerogenes) [µg/mL] | Minimum Inhibitory Concentration (MIC) (Klebsiella pneumoniae) [µg/mL] | Minimum Inhibitory Concentration (MIC) (Pseudomonas aeruginosa) [µg/mL] | Minimum Inhibitory Concentration (MIC) (Staphylococcus aureus) [µg/mL] | candidacidal activity after proteinase K treatment of cells [5] | susceptibility of och1Δ mutant to peptide (och1Δ mutant strain) | intracellular ROS formation [6] | antifungal activity in the high salt environment ([2]; 62.5 and 93.75 mM) | ROS-inducing ability, rank among peptides [6]
C[C@H](N)C(=O)N[C@@H](CCCCN)C(=O)N[C@@H](CCCNC(=N)N)C(=O)N[C@@H](Cc1c[nH]cn1)C(=O)N[C@@H](Cc1c[nH]cn1)C(=O)NCC(=O)N[C@@H](Cc1ccc(O)cc1)C(=O)N[C@@H](CCCCN)C(=O)N[C@@H](CCCNC(=N)N)C(=O)N[C@@H](CCCCN)C(=O)N[C@@H](Cc1ccccc1)C(=O)N[C@@H](Cc1c[nH]cn1)C(=O)N[C@@H](C)C(=O)N[C@@H](CCCCN)C(=O)N[C@@H](CCCNC(=N)N)C(=O)N[C@@H](Cc1c[nH]cn1)C(=O)N[C@@H](Cc1c[nH]cn1)C(=O)NCC(=O)N[C@@H](Cc1ccc(O)cc1)C(=O)N[C@@H](CCCCN)C(=O)N[C@@H](CCCNC(=N)N)C(=O)N[C@@H](CCCCN)C(=O)N[C@@H](Cc1ccccc1)C(=O)N[C@@H](Cc1c[nH]cn1)C(N)=O [P-113Du] | 3.10 | 0.78 | 10.6 | potent candidacidal activity | consistent candidacidal activity | stronger activity for killing fungus than P-113 | 51.54 | 25 | 12.5 | 3.125 | 25 | failed to kill C. albicans | resistant | induced intracellular ROS formation | – | –
C[C@H](N)C(=O)N[C@@H](CCCCN)C(=O)N[C@@H](CCCNC(=N)N)C(=O)N[C@@H](Cc1c[nH]cn1)C(=O)N[C@@H](Cc1c[nH]cn1)C(=O)NCC(=O)N[C@@H](Cc1ccc(O)cc1)C(=O)N[C@@H](CCCCN)C(=O)N[C@@H](CCCNC(=N)N)C(=O)N[C@@H](CCCCN)C(=O)N[C@@H](Cc1ccccc1)C(=O)N[C@@H](Cc1c[nH]cn1)C(=O)N[C@@H](C)C(=O)N[C@@H](CCCCN)C(=O)N[C@@H](CCCNC(=N)N)C(=O)N[C@@H](Cc1c[nH]cn1)C(=O)N[C@@H](Cc1c[nH]cn1)C(=O)NCC(=O)N[C@@H](Cc1ccc(O)cc1)C(=O)N[C@@H](CCCCN)C(=O)N[C@@H](CCCNC(=N)N)C(=O)N[C@@H](CCCCN)C(=O)N[C@@H](Cc1ccccc1)C(=O)N[C@@H](Cc1c[nH]cn1)C(=O)N[C@@H](C)C(=O)N[C@@H](CCCCN)C(=O)N[C@@H](CCCNC(=N)N)C(=O)N[C@@H](Cc1c[nH]cn1)C(=O)N[C@@H](Cc1c[nH]cn1)C(=O)NCC(=O)N[C@@H](Cc1ccc(O)cc1)C(=O)N[C@@H](CCCCN)C(=O)N[C@@H](CCCNC(=N)N)C(=O)N[C@@H](CCCCN)C(=O)N[C@@H](Cc1ccccc1)C(=O)N[C@@H](Cc1c[nH]cn1)C(N)=O [P-113Tri] | 3.10 | 0.78 | 21.4 | potent candidacidal activity | consistent candidacidal activity | stronger activity for killing fungus than P-113 | 43.245 | 12.5 | 6.25 | 3.125 | 25 | failed to kill C. albicans | still sensitive | induced intracellular ROS formation | maintained strong antifungal activity | strongest ROS-inducing ability
LL-37: the control peptide (LLGDFFRKSKEKIGKEFKRIVQRIKDFLRNLVPRTES; Antibacterial peptide LL-37; UniProt P49913 134-170, looked up) [reference compound] | – | – | – | – | – | – | – | – | – | – | – | can still kill C. albicans cells | resistant | – | – | –
